Source: the NIST ThermoML archive (doi:10.1016/j.tca.2015.06.017)

Experiment: xn = mol fraction of the nth substance listed
Conditions: 303.15 K, Liquid, Vibrating tube method

CCCCCl [1-chlorobutane] + CCCCCCC
mass density [kg/m3]
Conditions	100 kPa	2000 kPa	5000 kPa	7000 kPa	10000 kPa	20000 kPa	30000 kPa	40000 kPa	50000 kPa
x2 = 0.0508	860.95	863.1	866.34	868.42	871.51	881.1	889.77	897.85	905.34
x2 = 0.0994	847.86	849.99	853.23	855.3	858.41	867.95	876.56	884.61	892.06
x2 = 0.2013	822	824.16	827.36	829.43	832.51	841.94	850.48	858.37	–
x2 = 0.3015	798.55	800.7	803.89	805.92	808.97	818.31	826.73	834.56	–
x2 = 0.4008	777.02	779.13	782.29	784.34	787.38	796.57	804.94	812.66	–
x2 = 0.5026	756.58	758.72	761.81	763.83	766.86	775.93	784.21	791.81	–
x2 = 0.6012	738.17	740.28	743.41	745.42	748.41	757.4	765.55	773.04	–
x2 = 0.7003	720.97	723.08	726.22	728.16	731.09	740.01	748.07	755.46	–
x2 = 0.7995	704.97	707.04	710.1	712.06	714.97	723.78	731.77	739	–
x2 = 0.9011	689.64	691.71	694.74	696.65	699.57	708.24	716.14	723.24	–
x2 = 0.9494	682.71	684.78	687.8	689.71	692.59	701.2	709.05	716.11	–
